Assay [1] concerns ER-HoxA9 myeloid progenitors, GFP+/MAC1+ differentiation flow cytometry. Briefly: GFP+/MAC1+ double-positive induction in arrested progenitors – HOXA9ER cells, flow cytometry, Powder Set01 subset01, dose response (AID 652121). (In general: In flow cytometry, cells or beads pass a laser one at a time.)
Experiment in assay [2]: as above
As to conditions: ER-HoxA9 myeloid progenitors, GFP+/MAC1+ differentiation flow cytometry; at 10 µM (top of the series).

SMILES strings stand for the structures. The source made the active and inactive calls.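 Rule for the calls: active = at least 15% of live cells showing both differentiation markers at top dose, and half-maximal dose below 10 µM; inactive = the rest.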

The EC50 is the concentration at which the effect is half-maximal. In the case of `Cc1ccc(Nc2nc(=O)c3cccnc3s2)c(Br)c1`, the EC50 in assay [1] was 1.83 µM.

As for `O=C(CCNC(=O)c1ccc(Cl)cc1)NC1CCCc2ccccc21` (stereo not drawn), the percent double positive differentiation in assay [2] was 44% (inactive).

Take `O=C(O)c1cccnc1Nc1ccc(Cl)cc1`: in assay [2], the percent double positive differentiation was 28.8% (inactive).

For the origin of these results see PubChem BioAssay AID652121 (NMMLSC, 2013).
